According to patent publication US6525001B1, “Substituted pyrimidine and pyridine herbicides” (Mid-American Commercialization Corporation, priority 1997, dated 2003):

What was measured:
Format in all cases: in vivo
Parameters in all cases: key: 0 is no effect; 10 is complete control
[1] = tested on: crabgrass (Digitaria spp.); assay: Test A pre-/postemergence; details: 0 to 10 scale
Procedure: (§1) Seeds of barnyardgrass (Echinochloa crus-galli), crabgrass (Digitaria spp.), morningglory (Ipomoea spp.), and velvetleaf (Abutilon theophrasti) were planted into a sandy loam soil and treated preemergence by soil drench with test chemicals formulated in a non-phytotoxic solvent mixture which includes a surfactant. At the same time, these crop and weed species were also treated postemergence sprayed to runoff, with test chemicals formulated in the same manner. Plants ranged in height from two to eighteen cm and were in the one to two leaf stage for the postemergence treatment. Treated plants and untreated controls were maintained in a greenhouse for approximately eleven days, after which all treated plants were compared to untreated controls and visually evaluated for injury. Plant response ratings, summarized in Table A, are based on a 0 to 10 scale where 0 is no effect and 10 is complete control. A dash (−) response means no test results.

[2] = tested on: barnyardgrass (Echinochloa crus-galli); assay: Test A pre-/postemergence; details: 0 to 10 scale
Procedure: as §1

[3] = tested on: velvetleaf (Abutilon theophrasti); assay: Test A pre-/postemergence; details: 0 to 10 scale
Procedure: as §1

[4] = tested on: morningglory (Ipomoea spp.); assay: Test A pre-/postemergence; details: 0 to 10 scale
Procedure: as §1

[5] = tested on: sugar beet (Beta vulgaris); assay: Test B pre-/postemergence
In short: (§2)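 Seeds were planted and sprayed preemergence, while plants at 2 to 18 cm (1- to 4-leaf stage) were sprayed postemergence at the same time, with test chemical in a non-phytotoxic solvent mixture containing surfactant. After twelve to sixteen days in a greenhouse, injury was rated visually against untreated controls on a 0–10 scale.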

[6] = tested on: cocklebur (Xanthium strumarium); assay: Test B pre-/postemergence
In short: as §2

wild oat (Avena fatua) = assay: Test B pre-/postemergence
In short: as §2

[7] = tested on: purple nutsedge (Cyperus rotundus); assay: Test B pre-/postemergence
In short: as §2

[8] = tested on: blackgrass (Alopecurus myosuroides); assay: Test B pre-/postemergence
In short: as §2

[9] = tested on: pigweed (Amaranthus retroflexus); assay: Test B pre-/postemergence
In short: as §2

soybean (Glycine max) = assay: Test B pre-/postemergence
In short: as §2

corn (Zea mays) = assay: Test B pre-/postemergence
In short: as §2

[10] = tested on: giant foxtail (Setaria faberii); assay: Test B pre-/postemergence
In short: as §2

[11] = tested on: velvetleaf (Abutilon theophrasti); assay: Test B pre-/postemergence
In short: as §2

[12] = tested on: wheat (Triticum aestivum); assay: Test B pre-/postemergence
In short: as §2

[13] = tested on: bedstraw (Galium aparine); assay: Test B pre-/postemergence
In short: as §2

rape (Brassica napus) = assay: Test B pre-/postemergence
In short: as §2

[14] = tested on: broadleaf signalgrass (Brachiaria decumbens); assay: Test B pre-/postemergence
In short: as §2

[15] = tested on: crabgrass (Digitaria sanguinalis); assay: Test B pre-/postemergence
In short: as §2

[16] = tested on: momingglory (Ipomoea hederacea); assay: Test B pre-/postemergence
In short: as §2

[17] = tested on: duck salad (Heteranthera limosa); assay: Test B flood test
In short: (§3)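 Plants were grown to the 2-leaf stage before treatment with test chemical, then held in a greenhouse for twelve to sixteen days. Injury was visually rated against untreated controls on a 0–10 scale, where 0 is no effect and 10 is complete control.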

[18] = tested on: bamyardgrass (Echinochloa crus-galli); assay: Test B flood test
In short: as §3

rice (Oryza sativa) = assay: Test B flood test
In short: as §3

[19] = tested on: smallflower flatsedge (Cyperus difformis); assay: Test B flood test
In short: as §3

[20] = PRE SOIL DRENCH, Rate 1000 g/ha
[21] = PRE SOIL DRENCH, Rate 2000 g/ha
[22] = postemergence SPRAYED TO RUNOFF, Rate 500 g/ha
[23] = postemergence SPRAYED TO RUNOFF, Rate 1000 g/ha
[24] = Rate 62 g/ha, Postemergence (flood test)
[25] = Rate 125 g/ha, Postemergence, flood test
[26] = Rate 250 g/ha, Postemergence (flood test species)

Cc1cnc(-c2ccccc2)nc1Cn1cnc(C(F)(F)F)c1 [Compound 8]
Plant response rating, Crabgrass [1, 20]: 9 | Plant response rating, Crabgrass [1, 21]: 10 | Plant response rating, Crabgrass [1, 22]: 8 | Plant response rating, Crabgrass [1, 23]: 5 | Plant response rating, Barnyardgrass [2, 20]: 4 | Plant response rating, Barnyardgrass [2, 21]: 7 | Plant response rating, Barnyardgrass [2, 22]: 3 | Plant response rating, Barnyardgrass [2, 23]: 3 | Plant response rating, Velvetleaf [3, 20]: 2 | Plant response rating, Velvetleaf [3, 21]: 3 | Plant response rating, Velvetleaf [3, 22]: 1 | Plant response rating, Velvetleaf [3, 23]: 2 | Plant response rating, Morningglory [4, 20]: 9 | Plant response rating, Morningglory [4, 21]: 8 | Plant response rating, Morningglory [4, 22]: 3 | Plant response rating, Morningglory [4, 23]: 7

Cc1cnc(-c2cccc(C(F)(F)F)c2)nc1Cc1cccc(C(F)(F)F)c1 [Compound 24]
Plant response rating, Sugarbeets ([5]; Rate 62 g/ha, Postemergence): 10 | Sugarbeets plant response rating ([5]; Rate 62 g/ha, Preemergence): 2 | Plant response rating, Sugarbeets ([5]; Rate 125 g/ha, Postemergence): 10 | Sugarbeets plant response rating ([5]; Rate 125 g/ha, Preemergence): 3 | Plant response rating, Sugarbeets ([5]; Rate 250 g/ha, Postemergence): 10 | Plant response rating, Sugarbeets ([5]; Rate 250 g/ha, Preemergence): 9 | Plant response rating, Cocklebur ([6]; Rate 62 g/ha, Postemergence): 9 | Cocklebur plant response rating ([6]; Rate 62 g/ha, Preemergence): 0 | Plant response rating, Cocklebur ([6]; Rate 125 g/ha, Postemergence): 9 | Cocklebur plant response rating ([6]; Rate 125 g/ha, Preemergence): 0 | Plant response rating, Cocklebur ([6]; Rate 250 g/ha, Postemergence): 10 | Plant response rating, Cocklebur ([6]; Rate 250 g/ha, Preemergence): 0 | Plant response rating, Wild oats (wild oat (Avena fatua); Rate 62 g/ha, Postemergence): 2 | Wild oats plant response rating (wild oat (Avena fatua); Rate 62 g/ha, Preemergence): 0 | Plant response rating, Wild oats (wild oat (Avena fatua); Rate 125 g/ha, Postemergence): 3 | Wild oats plant response rating (wild oat (Avena fatua); Rate 125 g/ha, Preemergence): 1 | Plant response rating, Wild oats (wild oat (Avena fatua); Rate 250 g/ha, Postemergence): 4 | Plant response rating, Wild oats (wild oat (Avena fatua); Rate 250 g/ha, Preemergence): 4 | Plant response rating, Nutsedge ([7]; Rate 62 g/ha, Postemergence): 0 | Nutsedge plant response rating ([7]; Rate 62 g/ha, Preemergence): 0 | Plant response rating, Nutsedge ([7]; Rate 125 g/ha, Postemergence): 1 | Nutsedge plant response rating ([7]; Rate 125 g/ha, Preemergence): 0 | Plant response rating, Nutsedge ([7]; Rate 250 g/ha, Preemergence): 0 | Plant response rating, Blackgrass ([8]; Rate 62 g/ha, Postemergence): 2 | Blackgrass plant response rating ([8]; Rate 62 g/ha, Preemergence): 0 | Plant response rating, Blackgrass ([8]; Rate 125 g/ha, Postemergence): 3 | Blackgrass plant response rating ([8]; Rate 125 g/ha, Preemergence): 2 | Plant response rating, Blackgrass ([8]; Rate 250 g/ha, Postemergence): 4 | Plant response rating, Blackgrass ([8]; Rate 250 g/ha, Preemergence): 3 | Plant response rating, Redroot pigweed ([9]; Rate 62 g/ha, Postemergence): 9 | Redroot pigweed plant response rating ([9]; Rate 62 g/ha, Preemergence): 0 | Plant response rating, Redroot pigweed ([9]; Rate 125 g/ha, Postemergence): 10 | Redroot pigweed plant response rating ([9]; Rate 125 g/ha, Preemergence): 8 | Plant response rating, Redroot pigweed ([9]; Rate 250 g/ha, Postemergence): 10 | Plant response rating, Redroot pigweed ([9]; Rate 250 g/ha, Preemergence): 10 | Plant response rating, Soybean (soybean (Glycine max); Rate 62 g/ha, Postemergence): 3 | Soybean plant response rating (soybean (Glycine max); Rate 62 g/ha, Preemergence): 0 | Plant response rating, Soybean (soybean (Glycine max); Rate 125 g/ha, Postemergence): 6 | Soybean plant response rating (soybean (Glycine max); Rate 125 g/ha, Preemergence): 0 | Plant response rating, Soybean (soybean (Glycine max); Rate 250 g/ha, Postemergence): 6 | Plant response rating, Soybean (soybean (Glycine max); Rate 250 g/ha, Preemergence): 0 | Plant response rating, Corn (corn (Zea mays); Rate 62 g/ha, Postemergence): 1 | Corn plant response rating (corn (Zea mays); Rate 62 g/ha, Preemergence): 0 | Plant response rating, Corn (corn (Zea mays); Rate 125 g/ha, Postemergence): 1 | Corn plant response rating (corn (Zea mays); Rate 125 g/ha, Preemergence): 0 | Plant response rating, Corn (corn (Zea mays); Rate 250 g/ha, Postemergence): 1 | Plant response rating, Corn (corn (Zea mays); Rate 250 g/ha, Preemergence): 0 | Plant response rating, Giant foxtail ([10]; Rate 62 g/ha, Postemergence): 2 | Giant foxtail plant response rating ([10]; Rate 62 g/ha, Preemergence): 0 | Plant response rating, Giant foxtail ([10]; Rate 125 g/ha, Postemergence): 2 | Giant foxtail plant response rating ([10]; Rate 125 g/ha, Preemergence): 6 | Plant response rating, Giant foxtail ([10]; Rate 250 g/ha, Postemergence): 3 | Plant response rating, Giant foxtail ([10]; Rate 250 g/ha, Preemergence): 6 | Plant response rating, Velvetleaf ([11]; Rate 62 g/ha, Postemergence): 2 | Velvetleaf plant response rating ([11]; Rate 62 g/ha, Preemergence): 0 | Plant response rating, Velvetleaf ([11]; Rate 125 g/ha, Postemergence): 6 | Velvetleaf plant response rating ([11]; Rate 125 g/ha, Preemergence): 1 | Plant response rating, Velvetleaf ([11]; Rate 250 g/ha, Postemergence): 7 | Plant response rating, Velvetleaf ([11]; Rate 250 g/ha, Preemergence): 2 | Plant response rating, Wheat ([12]; Rate 62 g/ha, Postemergence): 2 | Wheat plant response rating ([12]; Rate 62 g/ha, Preemergence): 0 | Plant response rating, Wheat ([12]; Rate 125 g/ha, Postemergence): 2 | Wheat plant response rating ([12]; Rate 125 g/ha, Preemergence): 0 | Plant response rating, Wheat ([12]; Rate 250 g/ha, Postemergence): 3 | Plant response rating, Wheat ([12]; Rate 250 g/ha, Preemergence): 0 | Plant response rating, Bedstraw ([13]; Rate 62 g/ha, Postemergence): 4 | Bedstraw plant response rating ([13]; Rate 62 g/ha, Preemergence): 0 | Plant response rating, Bedstraw ([13]; Rate 125 g/ha, Postemergence): 10 | Bedstraw plant response rating ([13]; Rate 125 g/ha, Preemergence): 1 | Plant response rating, Bedstraw ([13]; Rate 250 g/ha, Postemergence): 10 | Plant response rating, Bedstraw ([13]; Rate 250 g/ha, Preemergence): 1 | Plant response rating, Rape (rape (Brassica napus); Rate 62 g/ha, Postemergence): 8 | Rape plant response rating (rape (Brassica napus); Rate 62 g/ha, Preemergence): 0 | Plant response rating, Rape (rape (Brassica napus); Rate 125 g/ha, Postemergence): 10 | Rape plant response rating (rape (Brassica napus); Rate 125 g/ha, Preemergence): 2 | Plant response rating, Rape (rape (Brassica napus); Rate 250 g/ha, Postemergence): 10 | Plant response rating, Rape (rape (Brassica napus); Rate 250 g/ha, Preemergence): 4 | Plant response rating, B. signalgrass ([14]; Rate 62 g/ha, Postemergence): 2 | B. signalgrass plant response rating ([14]; Rate 62 g/ha, Preemergence): 2 | Plant response rating, B. signalgrass ([14]; Rate 125 g/ha, Postemergence): 2 | B. signalgrass plant response rating ([14]; Rate 125 g/ha, Preemergence): 3 | Plant response rating, B. signalgrass ([14]; Rate 250 g/ha, Postemergence): 3 | Plant response rating, B. signalgrass ([14]; Rate 250 g/ha, Preemergence): 6 | Plant response rating, Crabgrass ([15]; Rate 62 g/ha, Postemergence): 8 | Crabgrass plant response rating ([15]; Rate 62 g/ha, Preemergence): 1 | Plant response rating, Crabgrass ([15]; Rate 125 g/ha, Postemergence): 8 | Crabgrass plant response rating ([15]; Rate 125 g/ha, Preemergence): 3 | Plant response rating, Crabgrass ([15]; Rate 250 g/ha, Postemergence): 8 | Plant response rating, Crabgrass ([15]; Rate 250 g/ha, Preemergence): 1 | Plant response rating, Morningglory ([16]; Rate 62 g/ha, Postemergence): 8 | Morningglory plant response rating ([16]; Rate 62 g/ha, Preemergence): 2 | Plant response rating, Morningglory ([16]; Rate 125 g/ha, Postemergence): 10 | Morningglory plant response rating ([16]; Rate 125 g/ha, Preemergence): 4 | Plant response rating, Morningglory ([16]; Rate 250 g/ha, Postemergence): 10 | Plant response rating, Morningglory ([16]; Rate 250 g/ha, Preemergence): 4 | Plant response rating, Ducksalad [17, 24]: 0 | Plant response rating, Ducksalad [17, 25]: 2 | Plant response rating, Ducksalad [17, 26]: 3 | Plant response rating, Barnyardgrass [18, 24]: 2 | Plant response rating, Barnyardgrass [18, 25]: 3 | Plant response rating, Barnyardgrass [18, 26]: 4 | Plant response rating, Rice (rice (Oryza sativa); [24]): 1 | Plant response rating, Rice (rice (Oryza sativa); [25]): 1 | Plant response rating, Rice (rice (Oryza sativa); [26]): 2 | Plant response rating, S. Flatsedge [19, 24]: 0 | Plant response rating, S. Flatsedge [19, 25]: 1 | Plant response rating, S. Flatsedge [19, 26]: 3
